Measurements reported in ChEMBL document CHEMBL1201862, “PubChem BioAssay data set” (2004).
Calls of active or inactive are those of the source.

What was measured:
Assay type in all cases: functional
[1] = target: T1, Sentrin-specific protease 7 (Homo sapiens, UniProt Q9BQF6);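 note: Luminescence-based dose-response confirmation of ultra-high-throughput screening hits, measuring inhibition of SENP7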
T1 sequence (Q9BQF6 whole entry): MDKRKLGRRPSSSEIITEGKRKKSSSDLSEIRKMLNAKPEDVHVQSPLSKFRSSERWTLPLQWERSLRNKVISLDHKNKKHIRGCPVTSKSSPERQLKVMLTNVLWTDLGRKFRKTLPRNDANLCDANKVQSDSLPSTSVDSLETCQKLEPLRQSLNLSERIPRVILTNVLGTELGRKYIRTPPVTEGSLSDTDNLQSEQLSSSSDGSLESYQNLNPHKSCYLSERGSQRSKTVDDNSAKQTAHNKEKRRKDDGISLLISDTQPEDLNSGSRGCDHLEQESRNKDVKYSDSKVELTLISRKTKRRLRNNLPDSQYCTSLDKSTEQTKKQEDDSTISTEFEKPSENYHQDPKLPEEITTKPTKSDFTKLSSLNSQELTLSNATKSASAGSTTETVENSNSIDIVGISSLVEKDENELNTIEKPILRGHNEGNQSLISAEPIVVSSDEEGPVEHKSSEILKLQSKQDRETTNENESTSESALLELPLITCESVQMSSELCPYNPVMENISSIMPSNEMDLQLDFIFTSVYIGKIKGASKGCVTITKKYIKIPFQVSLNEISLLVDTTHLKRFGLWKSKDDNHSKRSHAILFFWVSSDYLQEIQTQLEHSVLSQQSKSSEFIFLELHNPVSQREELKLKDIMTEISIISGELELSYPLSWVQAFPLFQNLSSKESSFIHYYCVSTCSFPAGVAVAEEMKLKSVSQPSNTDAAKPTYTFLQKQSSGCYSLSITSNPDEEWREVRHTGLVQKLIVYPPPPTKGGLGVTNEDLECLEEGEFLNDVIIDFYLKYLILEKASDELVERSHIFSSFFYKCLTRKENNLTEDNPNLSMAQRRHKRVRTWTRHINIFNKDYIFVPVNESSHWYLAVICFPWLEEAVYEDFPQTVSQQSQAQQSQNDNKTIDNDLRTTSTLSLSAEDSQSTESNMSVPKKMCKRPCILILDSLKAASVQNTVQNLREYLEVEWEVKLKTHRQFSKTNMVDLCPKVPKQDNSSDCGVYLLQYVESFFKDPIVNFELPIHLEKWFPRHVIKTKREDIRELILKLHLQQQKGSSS

INS1 = assay: INS-1E survival protection against cytokine death – cell-based, luminescence, retest, dose response (AID 449756); settings: Rattus norvegicus;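 note: cell death triggered by IL-1 beta plus TNF-alpha plus IFN-gamma mixture; protective hits raise ATP signal compared with cytokine alone wells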
Protein RecA = target: T2, Protein RecA (Mycobacterium tuberculosis, UniProt P9WHJ3); assay: Fluorescence Cell-Free Homogeneous Dose Retest to Identify Inhibitors of RecA-Intein Splicing Activity. [Related pubchem assays (depositor defined):AID2097, AID2223, AID489010, AID492950]
T2 sequence (P9WHJ3 whole entry): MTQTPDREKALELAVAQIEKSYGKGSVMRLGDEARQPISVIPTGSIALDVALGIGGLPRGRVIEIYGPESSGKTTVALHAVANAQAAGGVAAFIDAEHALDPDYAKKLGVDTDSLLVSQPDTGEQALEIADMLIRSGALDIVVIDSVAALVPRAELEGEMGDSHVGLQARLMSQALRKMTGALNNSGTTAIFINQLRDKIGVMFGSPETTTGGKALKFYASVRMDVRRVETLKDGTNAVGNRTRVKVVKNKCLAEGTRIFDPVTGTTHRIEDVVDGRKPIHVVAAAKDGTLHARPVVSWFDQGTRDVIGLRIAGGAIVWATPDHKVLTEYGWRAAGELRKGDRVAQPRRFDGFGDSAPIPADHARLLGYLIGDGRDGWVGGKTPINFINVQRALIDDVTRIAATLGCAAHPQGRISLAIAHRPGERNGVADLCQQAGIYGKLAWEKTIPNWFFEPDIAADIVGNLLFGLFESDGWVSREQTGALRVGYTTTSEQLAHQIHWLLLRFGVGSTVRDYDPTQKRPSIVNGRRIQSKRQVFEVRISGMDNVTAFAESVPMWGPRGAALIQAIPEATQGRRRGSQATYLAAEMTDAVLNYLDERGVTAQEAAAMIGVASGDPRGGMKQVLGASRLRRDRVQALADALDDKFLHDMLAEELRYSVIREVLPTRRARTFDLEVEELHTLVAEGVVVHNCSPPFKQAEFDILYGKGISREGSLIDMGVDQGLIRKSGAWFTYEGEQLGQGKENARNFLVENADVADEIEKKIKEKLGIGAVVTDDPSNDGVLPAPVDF

[2] = target: T3, Replicative DNA helicase DnaB (Mycobacterium tuberculosis, UniProt P9WMR3); assay: DnaB intein splicing inhibitors, dose response, biochemical, cell-free fluorescence (AID 449749)
T3 sequence (P9WMR3 whole entry): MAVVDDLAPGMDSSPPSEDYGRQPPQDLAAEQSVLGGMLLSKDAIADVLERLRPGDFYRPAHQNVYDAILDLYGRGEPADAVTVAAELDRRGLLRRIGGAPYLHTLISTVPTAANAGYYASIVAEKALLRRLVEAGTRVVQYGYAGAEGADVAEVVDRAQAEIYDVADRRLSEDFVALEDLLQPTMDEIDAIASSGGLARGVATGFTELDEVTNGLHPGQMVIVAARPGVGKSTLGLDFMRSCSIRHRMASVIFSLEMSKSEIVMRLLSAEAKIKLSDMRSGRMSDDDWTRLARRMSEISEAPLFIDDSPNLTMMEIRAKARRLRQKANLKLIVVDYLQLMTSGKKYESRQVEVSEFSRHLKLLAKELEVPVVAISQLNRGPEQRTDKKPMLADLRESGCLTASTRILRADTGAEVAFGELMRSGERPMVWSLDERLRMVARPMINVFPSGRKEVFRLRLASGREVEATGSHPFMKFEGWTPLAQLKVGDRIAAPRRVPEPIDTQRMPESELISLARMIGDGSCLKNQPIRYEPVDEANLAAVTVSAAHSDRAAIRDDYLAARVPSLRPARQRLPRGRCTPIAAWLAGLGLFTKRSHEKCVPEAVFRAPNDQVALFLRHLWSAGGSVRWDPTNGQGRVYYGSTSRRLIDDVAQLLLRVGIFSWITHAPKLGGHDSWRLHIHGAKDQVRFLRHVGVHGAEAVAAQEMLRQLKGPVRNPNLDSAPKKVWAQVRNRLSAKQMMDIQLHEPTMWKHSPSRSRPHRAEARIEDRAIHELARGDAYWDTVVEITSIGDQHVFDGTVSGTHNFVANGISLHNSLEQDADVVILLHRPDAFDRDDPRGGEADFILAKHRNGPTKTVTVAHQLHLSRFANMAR

Cc1ccc(S(=O)(=O)/N=C2\C=C(Nc3cccc(C(=O)O)c3)C(=O)c3ccccc32)c(C)c1
active: IC50 [1] 3.3 µM | AC50 (INS1) 6.82 µM | EC50 (Protein RecA) 15 µM | AC50 [2] 27 µM

COc1ccc(NC(=O)/C(Cl)=C(/Cl)[S+]([O-])Cc2ccccc2)cn1 (stereo not given)
active: AC50 (INS1) 1.1 µM | EC50 (Protein RecA) 3.14 µM | AC50 [2] 3.35 µM

Nc1ccc(N2CCCCC2)c2nonc12
active: IC50 [1] 17.1 µM | EC50 (Protein RecA) 2.76 µM | AC50 [2] 5.14 µM
